Data taken from patent US11160782B2, “Method for producing nobiletin-containing solid dispersion” (KAO CORPORATION, priority 2016, dated 2021).

Experiments:
[1] = Transferability of nobiletin into blood circulation during oral administration to mice; format: in vivo; settings: male, C57BL/6J, mouse, 200 mg/kg, plasma
Excerpt: [Evaluation of Transferability of Nobiletin into Blood Circulation During Oral Administration to Mice]
C57BL/6J mice (male, 6 week-old) were purchased from CLEA Japan, Inc. The mice were habituated to the environment for one week or more, and were fed to a test. Each of the test groups consisted of 8 mice, which was believed to be the minimum number required to ensure the statistical significance of the test system.
Mice were bred in the facility for one week under ad libitum feeding of solid food (CE-s), and the test was performed using the mice. The mice were fasted for 16 hours, and blood was initially collected from the orbital sinus of each mouse under isoflurane anesthesia (heparin-treated micro hematocrit blood collection tube, manufactured by VITREX Medical A/S). Each sample solution was then administrated into the stomach of the mice at a dose of 200 mg/kg weight per mouse using a probe. […]
The collected blood samples were centrifuged at 12,000 rpm for 10 minutes, and 30 μL of plasma in each sample was recovered into an Eppendorf tube. […] The nobiletin concentration in the plasma was measured by LC-MS/MS.
30 μL of acetonitrile was added to 30 μL of the recovered plasma, was stirred with a vortex mixer for 5 seconds, and was centrifuged at 12,000 rpm for 15 minutes at room temperature. […] The nobiletin concentration was then measured by LC-MS/MS.

[2] = Solubility in water at 25° C. of the poorly water-soluble raw material; settings: raw material (poorly water-soluble substance) of the composition

Row | AUC ([1]; read-out: AUC (area under the blood concentration transition curve) (converted)) | Cmax ([1]; read-out: Cmax (maximum blood concentration of nobiletin)) | Solubility in water at 25° C. [2] | SMILES
1 | 5380 ng·h/mL | 3700 ng/mL | 1 ppm | COc1ccc(-c2cc(=O)c3c(OC)c(OC)c(OC)c(OC)c3o2)cc1OC [Nobiletin, 3′,4′,5,6,7,8-hexamethoxyflavone]
2 | – | – | 4 ppm | O=c1oc2c(O)c(O)cc3c(=O)oc4c(O)c(O)cc1c4c23 [Ellagic acid, Ellagic acid dihydrate]

Row | SMILES | AUC ([1]; read-out: AUC (area under the blood concentration transition curve) (converted)) | Cmax ([1]; read-out: Cmax (maximum blood concentration of nobiletin)) | Solubility in water at 25° C. [2]
3 | COc1ccc([C@@H]2CC(=O)c3c(O)cc(O[C@@H]4O[C@H](CO[C@@H]5O[C@@H](C)[C@H](O)[C@@H](O)[C@H]5O)[C@@H](O)[C@H](O)[C@H]4O)cc3O2)cc1O [Hesperidin] | – | – | 0.5 ppm
